{
  "source": "patent US12611372B2",
  "about": "“Strain and use thereof” (LG HOUSEHOLD & HEALTH CARE LTD., priority 2021, dated 2026)",
  "key": {"B16f10 melanocytes": {"test_system": "B16f10 melanocytes", "test": "Melanin production inhibition", "assay_type": "cell-based", "settings": "treatment concentration 0.02%; 72 hours", "method": "Samples were diluted in B16f10 melanocytes at each concentration, treated for 72 hours, and cultured, and then, the amount of melanin pigment present in melanocytes was quantified. The melanin production inhibitory rate was calculated in comparison to the total protein amount, and the values thereof were measured as percentage (%) based on the DMSO control (DMEM containing 0% serum) set to 100%.\nIn order to measure the degree of decrease in the amount of melanin pigment in the Saccharomyces cerevisiae KCTC14780BP fermented product and the fraction containing the yeast polypeptide, the inhibition rate of melanin production was compared upon treatment with the positive control group (Arbutin 200 ppm (Lim Y. J. et al., 2009, Arch Pharm Res.)), the Saccharomyces cerevisiae KCTC14780BP fermented product and the fraction containing the yeast polypeptide (Table 15)."}, "human keratinocyte HaCaT": {"test_system": "human keratinocyte HaCaT", "test": "Hyaluronic acid synthesis, Quantikine ELISA Hyaluronan", "assay_type": "cell-based", "settings": "positive control, 1 ppm, 72 hours", "method": "Samples were treated with human keratinocyte HaCaT for 72 hours at each concentration. Hyaluronic acid synthesis was compared with the control group (DMEM treatment containing 0% serum) using Quantikine ELISA Hyaluronan from R&D Systems to quantify the moisturizing ability (Table 7).\nThe confirmation of hyaluronic acid synthesis enhancement effect was performed in the same manner as in Example 4-1 (Table 8).\nThe confirmation of hyaluronic acid synthesis enhancement effect was performed in the same manner as in Example 4-1 (Table 9).\nThe confirmation of hyaluronic acid synthesis enhancement effect was performed in the same manner as in Example 4-1 (Table 10).\nThe confirmation of hyaluronic acid synthesis enhancement effect was performed in the same manner as in Example 4-1 (Table 11)."}, "[1]": {"target": "T1, TRPV1 (transient receptor potential vanilloid-1) (Homo sapiens, UniProt Q8NER1)", "T1 construct": "expressed in transfected cells; host or cells: HEK 293T-TRPV1 cells", "T1 sequence (Q8NER1 whole entry, species assumed)": "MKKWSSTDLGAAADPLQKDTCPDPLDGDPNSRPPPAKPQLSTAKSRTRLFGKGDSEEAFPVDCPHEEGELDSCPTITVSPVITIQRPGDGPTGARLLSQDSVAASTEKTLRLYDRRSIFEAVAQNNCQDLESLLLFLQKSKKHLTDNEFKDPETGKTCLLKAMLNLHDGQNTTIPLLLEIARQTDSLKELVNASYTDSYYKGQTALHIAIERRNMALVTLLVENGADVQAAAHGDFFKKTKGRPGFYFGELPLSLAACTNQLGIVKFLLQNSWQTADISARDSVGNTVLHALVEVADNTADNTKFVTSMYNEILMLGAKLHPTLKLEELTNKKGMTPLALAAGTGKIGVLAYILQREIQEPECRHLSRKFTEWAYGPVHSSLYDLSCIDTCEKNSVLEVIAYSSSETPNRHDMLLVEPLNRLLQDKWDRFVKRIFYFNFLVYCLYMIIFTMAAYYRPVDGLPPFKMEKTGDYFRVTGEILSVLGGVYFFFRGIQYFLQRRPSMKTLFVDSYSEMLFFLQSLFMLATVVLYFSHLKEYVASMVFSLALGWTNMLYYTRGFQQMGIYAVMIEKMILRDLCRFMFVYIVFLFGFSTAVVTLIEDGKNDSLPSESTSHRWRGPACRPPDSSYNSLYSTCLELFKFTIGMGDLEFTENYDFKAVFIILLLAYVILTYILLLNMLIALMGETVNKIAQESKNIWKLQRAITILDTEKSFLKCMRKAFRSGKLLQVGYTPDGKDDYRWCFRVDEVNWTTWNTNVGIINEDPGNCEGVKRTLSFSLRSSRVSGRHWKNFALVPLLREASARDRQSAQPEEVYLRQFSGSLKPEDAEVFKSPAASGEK", "test": "TRPV1 activity, calcium influx detection assay in HEK 293T-TRPV1 cells", "assay_type": "cell-based", "settings": "untreated group 83.57"}, "[2]": {"test": "DPPH free radical scavenging", "assay_type": "biochemical", "settings": "0.15 mM DPPH, room temperature, 30 minutes, absorbance at 540 nm"}, "Raw 264.7 cells": {"test_system": "Raw 264.7 cells", "test": "NO production inhibitory ability, LPS-treated cells, NO assay kit", "assay_type": "cell-based", "settings": "positive control, 20 μg/mL, LPS 1 μg/mL, 24 hours", "method": "Raw 264.7 cells were diluted for each concentration, treated with 1 μg/mL of LPS, and cultured for 24 hours. The NO production inhibitory ability was evaluated as follows using a NO assay kit (Table 13).\nThe confirmation of skin soothing and inflammation improvement effects was performed in the same manner as in Example 6-1 (Table 14)."}, "loricrin (LOR)": {"test_system": "loricrin (LOR)", "test": "Loricrin (LOR) gene expression in TNF-a-treated HaCaT cells, qPCR", "assay_type": "cell-based, human", "settings": "Control: TNF-a 10 pg/mL alone; untreated group = 1", "method": "After treating HaCaT cells with TNF-a (10 pg/mL) for 3 hours, samples were diluted for each concentration, mixed with TNF-a-treated HaCaT cells, and cultured for 24 hours. The degree of increase in the expression of loricrin (LOR), a major component of the skin barrier, was quantified using qPCR (Table 18)."}, "human dermal fibroblast": {"test_system": "human dermal fibroblast", "test": "Collagen synthesis rate, Procollagen Type I C-peptide (PIP) EIA kit", "assay_type": "cell-based", "settings": "positive control, 48 hours", "method": "Samples were treated with human dermal fibroblast for 48 hours at each concentration. The collagen synthesis rate was measured using a Procollagen Type I C-peptide (PIP) EIA kit. The collagen synthesis efficacy of the samples was calculated and measured as values in comparison with the negative control group (DMEM containing 0% serum).\nIn order to confirm the collagen synthesis enhancement effect of the Saccharomyces cerevisiae KCTC14779BP fermented product, the collagen synthesis rate was compared for normal cells, and normal cells treated with TGF-β, Saccharomyces cerevisiae KCTC14779BP fermented product, and normal yeast (Saccharomyces cerevisiae KCTC7296) fermented product (Table 3).\nThe confirmation of collagen synthesis enhancement effect was performed in the same manner as in Example 3-1, and the collagen synthesis rate was compared for normal cells, and normal cells treated with TGF-β, Saccharomyces cerevisiae KCTC14780BP fermented product, and fraction containing the yeast polypeptide (Table 4).\nThe confirmation of collagen synthesis enhancement effect was performed in the same manner as in Example 3-1, and the collagen synthesis rate was compared for normal cells, and normal cells treated with TGF-β, Lactobacillus fructivorans KCTC14776BP fermented product, and normal Lactobacillus (Lactobacillus plantarum KCTC3108) fermented product (Table 5).\nThe confirmation of collagen synthesis enhancement effect was performed in the same manner as in Example 3-1, and the collagen synthesis rate was compared for normal cells, and normal cells treated with TGF-β, Bacillus paramycoides KCTC14777BP fermented product, and normal Bacillus (Bacillus megaterium KCTC3007) fermented product (Table 6)."}},
  "data": [
    {"compound": "OC[C@H]1O[C@@H](Oc2ccc(O)cc2)[C@H](O)[C@@H](O)[C@@H]1O", "note": "[Arbutin]", "values": [
      {"measurement": "Melanin Production Inhibition (%)", "setting": "B16f10 melanocytes", "result": 56.4, "unit": "%"}
    ]},
    {"compound": "CC1=C(/C=C/C(C)=C/C=C/C(C)=C/C(=O)O)C(C)(C)CCC1", "note": "[Retinoic acid]", "values": [
      {"measurement": "Hyaluronic Acid Synthesis Rate (% of control)", "setting": "human keratinocyte HaCaT; Table 7", "result": "13.6 % of control"},
      {"measurement": "Hyaluronic Acid Synthesis Rate (% of control)", "setting": "human keratinocyte HaCaT; Table 8", "result": "17.8 % of control"},
      {"measurement": "Hyaluronic Acid Synthesis Rate (% of control)", "setting": "human keratinocyte HaCaT; Table 9", "result": "27.6 % of control"},
      {"measurement": "Hyaluronic Acid Synthesis Rate (% of control)", "setting": "human keratinocyte HaCaT; Table 10", "result": "22.0 % of control"},
      {"measurement": "Hyaluronic Acid Synthesis Rate (% of control)", "setting": "human keratinocyte HaCaT; Table 11", "result": "15.4 % of control"}
    ]},
    {"compound": "COc1cc(CNC(=O)CCCC/C=C/C(C)C)ccc1O", "note": "[Capsaicin]", "values": [
      {"measurement": "TRPV1 Activity (RFU, relative fluorescent unit)", "setting": "[1]; 10 μM, TRPV1 activity induction", "result": 101.86, "unit": "RFU"}
    ]},
    {"compound": "O=C1O[C@H]([C@@H](O)CO)C(O)=C1O", "note": "[Vitamin C]", "values": [
      {"measurement": "IC 50 (%)", "setting": "[2]", "result": "0.000606 ± 0.00006", "unit": "%"}
    ]},
    {"compound": "CNC(=N)NCCC[C@H](N)C(=O)O", "note": "[L-NMMA]", "values": [
      {"measurement": "NO production inhibitory ability (% of control)", "setting": "Raw 264.7 cells; Table 13", "result": "47.9 % of control"},
      {"measurement": "NO production inhibitory ability (% of control)", "setting": "Raw 264.7 cells; Table 14", "result": "47.9 % of control"}
    ]},
    {"compound": "TNF-a", "values": [
      {"measurement": "LOR Gene Expression (Relative mRNA level, of control)", "setting": "loricrin (LOR)", "result": 0.39}
    ]},
    {"compound": "Capsazepin", "values": [
      {"measurement": "TRPV1 Activity (RFU, relative fluorescent unit)", "setting": "[1]; 3 μM, TRPV1 activity inhibition", "result": 75.91, "unit": "RFU"}
    ]},
    {"compound": "TGF-β", "values": [
      {"measurement": "Collagen Synthesis Rate (% of control)", "setting": "human dermal fibroblast; Table 3, 10 ppb, vs negative control (DMEM 0% serum)", "result": "27.55 % of control"},
      {"measurement": "Collagen Synthesis Rate (% of control)", "setting": "human dermal fibroblast; Table 4, 10 ng/mL", "result": "23.92 % of control"},
      {"measurement": "Collagen Synthesis Rate (% of control)", "setting": "human dermal fibroblast; Table 5, 10 ppb", "result": "24.6 % of control"},
      {"measurement": "Collagen Synthesis Rate (% of control)", "setting": "human dermal fibroblast; Table 6, 10 ppb", "result": "20.84 % of control"}
    ]}
  ]
}
